Values quoted from earlier work as cited in patent US11234933B1, “Surface-modified emulsomes for intranasal delivery of drugs” (King Abdulaziz University, priority 2020, dated 2022).

Conditions: oral route, first pass

Q: For `CCOC(=O)C1=C[C@]2(CC)CCCN3CCc4c(n1c1ccccc41)[C@@H]32` [VIN, Vinpocetine], which VIN hepatic metabolism is on record?
A: ~75%
